# From US10138469B2, “Synthetic peptide and use thereof” (Toagosei Co., Ltd., priority 2014, dated 2018)
# Assays:
# CCD1079SK cells [1] = assay: Evaluation of the state of undifferentiation of SIRIUS cells by cytoimmunostaining of undifferentiated marker genes; format: cell-based, human; conditions: sample 1 20 μM, 30° C., 3 days; fluorescent immunostaining
# Protocol: The state of undifferentiation of the SIRIUS cells (cells forming clusters) produced using the sample 1 obtained in example 1 was evaluated by cytoimmunostaining (fluorescent immunostaining) of the state of expression of undifferentiated marker genes (endogenous Oct3/4, Nanog, Sox2, TRA1-81, SSEA-3, and ALP), i.e., the state of expression of protein that is a gene product of these genes (this protein is also referred to as “undifferentiated marker protein” below). The details of the evaluation test are as follows.
# The SIRIUS cells according to this working example were produced by culture under the same conditions as the culture conditions given in example 1 of Working Example 2 with the following exceptions: a cell culture chamber having 1 well per slide (culture area of 19 mm×44 mm) (also referred to as a slide chamber) was used as the culture chamber, 1.5×10^5 cells/well was used for the number of cells per well; and 1 mL was used for the amount of medium per well. The status of differentiation of the SIRIUS cells was evaluated by cytoimmunostaining as follows on the 3rd day after the start of the main culture (culture in the presence of peptide).
# Fixing, a permeabilization treatment, and a blocking treatment were first carried out on the cells in each test group. Specifically, the medium was removed from the culture chamber (slide chamber) in each test group once the culture for 3 days in the presence of peptide had been completed and the cells in each slide chamber were washed with cold PBS. PBS containing 4 volume % paraformaldehyde (4% paraformaldehyde solution) was then added to the slide chamber and the cells were fixed by standing for 15 minutes on ice. After the prescribed time had elapsed, the 4% paraformaldehyde solution was removed and the cells in the slide chamber were washed with cold PBS.
# PBS containing 0.25 volume % Triton (registered trademark) X-100 (0.25% Triton (registered trademark) X-100 solution) was then added to each slide chamber and a permeabilization treatment was carried out on the cell membrane by standing for 15 minutes on ice. After the prescribed time had elapsed, the 0.25% Triton (registered trademark) X-100 solution was removed and the cells in the slide chamber were washed with cold PBS.
# PBS containing 1% BSA (1% BSA-containing PBS) was added to each slide chamber and a blocking treatment was carried out for 1 hour at room temperature. After the prescribed time had elapsed, the 1% BSA-containing PBS was removed and the cells in the slide chamber were washed with cold PBS.
# The primary antibodies (primary antibody dilution)—obtained by the dilution at the prescribed ratio (dilution ratio shown in Table 2) with 0.1% BSA/PBS of primary antibody that recognized the particular undifferentiated marker protein—were respectively added to the slide chambers and standing was carried out overnight (approximately 16 to 18 hours) at 4° C. After the prescribed time had elapsed, the primary antibody dilution was removed and washing with cold PBS was performed.
# Table 2 gives the undifferentiation markers used to evaluate the status of expression in this working example, the details for the primary antibody (product name, product number, immunized animal, antibody class) used to recognize the particular undifferentiated marker protein, and the dilution ratio for the primary antibody. Of the primary antibodies given in Table 2, the anti-Oct3/4 antibody was from Santa Cruz Biotechnology, Inc. and the anti-Nanog antibody, anti-Sox2 antibody, anti-TRA1-81 antibody, anti-SSEA-3 antibody, and anti-ALP antibody were from Abcam plc.
# Secondary antibody (secondary antibody dilution)—obtained by the 1000× dilution with 0.1% BSA/PBS of a secondary antibody that detected the particular primary antibody—was added to the slide chamber and standing was carried out in the dark for 2 hours at room temperature. After the prescribed time had elapsed, the secondary antibody dilution was removed and washing with cold PBS was performed. […]
# CCD1079SK cells [2] = assay: Production of SIRIUS cells: cluster formation and cell morphology of fibroblasts cultured with peptide (phase-contrast microscopy); format: cell-based, human; conditions: for cell morphology in the culture: days 1 to 6
# Description: SIRIUS cells were produced using the sample 1 obtained in Working Example 1. CCD1079SK cells (ATCC (registered trademark) CRL-2097), which are a fibroblast cell culture line derived from human skin tissue, were used as the sample cells. The details of the tests are as follows.
# The CCD1079SK cells, which had been stored frozen, were inoculated to six culture dishes with a diameter of 60 mm (60 mm dishes) to provide a cell density of 3×10^5 cells/well. Specifically, the thawed CCD1079SK cells were first suspended in ordinary Dulbecco's modified Eagle's medium (DMEM medium) to produce a cell suspension having a cell density of 1.5×10^5 cells/mL and 2 mL of this cell suspension was introduced into the 60 mm dish. This DMEM medium contained 10% FBS, 100 units/mL of penicillin, and 100 μg/mL of streptomycin in ordinary DMEM (Wako Pure Chemical Industries, Ltd., Cat. No. 043-30085).
# The CCD1079SK cells inoculated into the 60 mm dish were precultured for several hours (approximately 6 hours) in an incubator under conditions of 5% CO2 and 37° C.
# After the preculture for several hours, the CCD1079SK cells were subjected to a main culture at one of the culture conditions indicated for examples 1 to 6 in Table 1. The specific culture conditions are given in the following. […]
# The culture conditions according to example 5 are as follows: the stock solution of sample 1 is added, in an amount that provides a peptide concentration in the medium of 20 μM, to the DMEM medium (in the 60 mm dish) on which the CCD1079SK cells are being cultured, and culture is carried out under a temperature condition of 13° C. […]
# Other than the culture temperature and the presence/absence of peptide addition, the same culture conditions were used in all of examples 1 to 6. Thus, in all of examples 1 to 6, culture was carried out in a 5% CO2 atmosphere using a DMEM medium with the same composition (same as that used in the preculture). In addition, in all of examples 1 to 6, culture exchange and peptide addition (addition of PBS (−) in the peptide-free groups) were carried out every two days after the start of the main culture.
# Observation of the cell morphology using a phase-contrast microscope was carried out in each example on the 1st, 2nd, 3rd, 4th, 5th, 6th, 7th, 9th, 13th, 21st, 27th, and 34th days after the start of the main culture (cell culture in the presence of peptide). Among the images in FIG. 2, the micrographs given for example 3 are micrographs (images) showing cell aggregates (clusters) that were rarely identified when tests were independently repeated a plurality of times using the same conditions as in example 3.
# [3] = example 2: sample 1 20 μM, 37° C.
sequence,measurement,setting,value
CKSKSRRSC [sample 1],expression of undifferentiated marker gene ALP by cells constituting the clusters,CCD1079SK cells [1],strongly expressed
same,expression of undifferentiated marker gene Nanog by cells constituting the clusters,CCD1079SK cells [1],strongly expressed
same,expression of undifferentiated marker gene Oct3/4 by cells constituting the clusters,CCD1079SK cells [1],strongly expressed
same,expression of undifferentiated marker gene SSEA-3 by cells constituting the clusters,CCD1079SK cells [1],strongly expressed
same,expression of undifferentiated marker gene Sox2 by cells constituting the clusters,CCD1079SK cells [1],strongly expressed
same,expression of undifferentiated marker gene TRA1-81 by cells constituting the clusters,CCD1079SK cells [1],strongly expressed
same,time to formation of aggregates (clusters) of aggregated cells after the start of the main culture,"CCD1079SK cells [2]; example 1: sample 1 20 μM, 30° C., 60 mm dish",≤ 3 days
same,probability that at least 1 cluster was formed in the 60 mm dish within the 3rd day after the start of culture,"CCD1079SK cells [2]; example 1 conditions: 20 μM, 30° C., 26 times in 27 tests",at least 95%
same,"number (frequency) of clusters formed per one 60 mm dish, average","CCD1079SK cells [2]; example 1 conditions: 20 μM, 30° C., within the 3rd day",3
same,formation of cell aggregates (clusters) within 3 days after the start of the main culture,CCD1079SK cells [2]; [3],"did not form, or their formation frequency was very low"
same,persistence of the rarely observed clusters,CCD1079SK cells [2]; [3],disappeared by the 34th day
same,cell morphology in the culture,"CCD1079SK cells [2]; example 5: sample 1 20 μM, 13° C.",very close to a dead cell morphology
same,cell morphology in the culture,"CCD1079SK cells [2]; example 6: sample 1 20 μM, 22° C.",very close to a dead cell morphology
